In patent US9101628B2, “Methods and composition of treating a flaviviridae family viral infection” (The Board of Trustees of the Leland Stanford Junior …, priority 2007, dated 2015) one finds activity data, which are given here for 62 compounds.

This assay relates to HCV RNA replication. The assay can be described thus: RNA replication inhibition assay (luciferase reporter-linked HCV genome). Particulars: Hepatitis C virus, percentage of untreated control population; for activity at 5 µM: read-out: Residual Luciferase activity, 5 micromolar; for activity at 10 µM: read-out: Residual Luciferase activity, 10 micromolar.

Consider `CCCN(CCC)Cc1nc2ccccc2n1Cc1ccc(Cl)cc1` [Compound 5], for which the activity at 5 µM was less than 80% and the activity at 10 µM was less than 55%. On the same counts, the results for `COCC1CCN(Cc2nc3ccccc3n2Cc2ccc(Cl)cc2)C1` (stereo not drawn) [Compound 6] are more than 80% and less than 80%. For `COC(=O)C1CCN(Cc2nc3ccccc3n2Cc2ccc(Cl)cc2)C1` (stereo not drawn) [Compound 7], the activity at 5 µM was more than 80% and the activity at 10 µM was more than 80%. For the compound `COC(=O)C1CCCN1Cc1nc2ccccc2n1Cc1ccc(Cl)cc1` (stereo not drawn) [Compound 8], the activity at 5 µM is less than 55% and the activity at 10 µM is less than 55%. As for `COCC1CCCN1Cc1nc2ccccc2n1Cc1ccc(Cl)cc1` (stereo not drawn) [Compound 10], the activity at 5 µM is less than 80% and the activity at 10 µM was less than 80%. As for `O=C1CCCN1Cc1nc2ccccc2n1Cc1ccc(Cl)cc1` [Compound 12], the activity at 5 µM was less than 80% and the activity at 10 µM is less than 80%. Take `COC(=O)c1ccc(Cn2c(CN3CCCC3)nc3ccccc32)cc1` [Compound 14]: the activity at 5 µM is less than 80% and the activity at 10 µM is less than 80%. As to `O=C(O)c1ccc(Cn2c(CN3CCCC3)nc3ccccc32)cc1` [Compound 15], the activity at 5 µM is more than 80% and the activity at 10 µM is more than 80%.

On to `COC(=O)c1cccc(Cn2c(CN3CCCC3)nc3ccccc32)c1` [Compound 16], for which the activity at 5 µM is more than 80% and the activity at 10 µM is more than 80%. Turning to `O=C(O)c1cccc(Cn2c(CN3CCCC3)nc3ccccc32)c1` [Compound 17], the activity at 5 µM was more than 80% and the activity at 10 µM is more than 80%.

Consider `Clc1cccc(Cn2c(CN3CCCC3)nc3ccccc32)c1` [Compound 18], for which the activity at 5 µM is less than 80% and the activity at 10 µM is less than 80%. With `Clc1ccccc1Cn1c(CN2CCCC2)nc2ccccc21` [Compound 19], the activity at 5 µM was more than 80% and the activity at 10 µM is more than 80%. In the case of `c1ccc2c(c1)nc(CN1CCCC1)n2Cc1ccncc1` [Compound 20], the activity at 5 µM was more than 80% and the activity at 10 µM was more than 80%.

Take `c1cncc(Cn2c(CN3CCCC3)nc3ccccc32)c1` [Compound 21]: the activity at 5 µM is more than 80% and the activity at 10 µM is more than 80%. Regarding `c1ccc2c(c1)nc(CN1CCCC1)n2CC1CCCCC1` [Compound 22], the activity at 5 µM is more than 80% and the activity at 10 µM was less than 80%.

For `O[C@H]1CCN(Cc2nc3ccccc3n2Cc2ccc(Cl)cc2)C1` [Compound 23], the activity at 5 µM was more than 80% and the activity at 10 µM was more than 80%. On to `O[C@@H]1CCN(Cc2nc3ccccc3n2Cc2ccc(Cl)cc2)C1` [Compound 24], for which the activity at 5 µM was more than 80% and the activity at 10 µM is more than 80%. On to `OC[C@@H]1CCCN1Cc1nc2ccccc2n1Cc1ccc(Cl)cc1` [Compound 25], for which the activity at 5 µM was less than 80% and the activity at 10 µM was less than 55%. On the same counts, the results for `CC1CCC(C)N1Cc1nc2ccccc2n1Cc1ccc(Cl)cc1` (stereo not drawn) [Compound 26] are more than 80% and more than 80%.

In the case of `Clc1ccc(Cn2c(CN3CCCCCC3)nc3ccccc32)cc1` [Compound 27], the activity at 5 µM was less than 80% and the activity at 10 µM is less than 55%.

On to `Cc1ccc2c(c1)nc(CN1CCCC1)n2Cc1ccc(Cl)cc1` [Compound 28], for which the activity at 5 µM is more than 80% and the activity at 10 µM is less than 55%. The matching figures for `COCC1CCCN1Cc1nc2cc(C)ccc2n1Cc1ccc(Cl)cc1` (stereo not drawn) [Compound 29]: more than 80% and less than 55%. The matching figures for `COCC1CCCN1Cc1nc2c(C)c(C)ccc2n1Cc1ccc(Cl)cc1` (stereo not drawn) [Compound 31]: less than 80% and less than 55%. On the same counts, the results for `Clc1ccc(Cn2c(CN3CCCC3)nc3ccccc32)s1` [Compound 32] are less than 80% and less than 80%.

For the compound `Cc1ccc2c(nc(CN3CCCC3=O)n2Cc2ccc(Cl)cc2)c1C` [Compound 33], the activity at 5 µM is more than 80% and the activity at 10 µM is more than 80%. With `CC(=O)N1CCCC(Cn2c(CN3CCCC3)nc3ccccc32)C1` (stereo not drawn) [Compound 34], the activity at 5 µM is more than 80% and the activity at 10 µM was more than 80%. As to `CS(=O)(=O)N1CCCC(Cn2c(CN3CCCC3)nc3ccccc32)C1` (stereo not drawn) [Compound 35], the activity at 5 µM is more than 80% and the activity at 10 µM was more than 80%.

Take `c1ccc2c(c1)nc(CN1CCCC1)n2CC1CCNCC1` [Compound 36]: the activity at 5 µM was less than 80% and the activity at 10 µM is more than 80%. With `CC(=O)N1CCC(Cn2c(CN3CCCC3)nc3ccccc32)CC1` [Compound 37], the activity at 5 µM is less than 80% and the activity at 10 µM is more than 80%. Consider `CS(=O)(=O)N1CCC(Cn2c(CN3CCCC3)nc3ccccc32)CC1` [Compound 38], for which the activity at 5 µM is less than 80% and the activity at 10 µM is more than 80%. The matching figures for `c1ccc2c(c1)nc(CN1CCCC1)n2CC1CCCNC1` (stereo not drawn) [Compound 39]: less than 80% and less than 80%. On the same counts, the results for `Cc1ccc(Cn2c(CN3CCCC3)nc3ccccc32)cc1` [Compound 40] are less than 80% and less than 80%.

Turning to `CC(C)c1ccc(Cn2c(CN3CCCC3)nc3ccccc32)cc1` [Compound 41], the activity at 5 µM was less than 80% and the activity at 10 µM is less than 80%. With `FC(F)Oc1ccc(Cn2c(CN3CCCC3)nc3ccccc32)cc1` [Compound 42], the activity at 5 µM was more than 80% and the activity at 10 µM is less than 80%. The matching figures for `Clc1ccc(Cn2c(-c3cncs3)nc3ccccc32)cc1` [Compound 43]: less than 80% and less than 55%.

With `O=C(O)c1ccc2c(c1)ncn2Cc1ccc(Cl)cc1` [Compound 44], the activity at 5 µM was less than 80% and the activity at 10 µM was more than 80%. For `O=C(O)c1ccc2ncn(Cc3ccc(Cl)cc3)c2c1` [Compound 45], the activity at 5 µM is more than 80% and the activity at 10 µM is more than 80%. As for `Clc1ccc(CCn2cnc3ccccc32)cc1` [Compound 46], the activity at 5 µM was more than 80% and the activity at 10 µM was less than 80%. For the compound `Cc1cc2nc(CN3CCC[C@H]3CO)n(Cc3ccc(Cl)cc3)c2cc1C` [Compound 47], the activity at 5 µM was less than 80% and the activity at 10 µM was less than 80%. Consider `Cc1cc2nc(CN3CCC[C@@H]3CO)n(Cc3ccc(Cl)cc3)c2cc1C` [Compound 48], for which the activity at 5 µM is more than 80% and the activity at 10 µM is less than 80%.

With `Cc1cc2nc(CN3CCCC3C)n(Cc3ccc(Cl)cc3)c2cc1C` (stereo not drawn) [Compound 49], the activity at 5 µM was less than 55% and the activity at 10 µM is less than 55%. As for `Cc1cc2nc(CN3CCC[C@H]3CN3CCCC3)n(Cc3ccc(Cl)cc3)c2cc1C` [Compound 50], the activity at 5 µM was less than 20% and the activity at 10 µM was less than 20%. Turning to `Cc1cc2nc(CN3CCCC3c3ccccn3)n(Cc3ccc(Cl)cc3)c2cc1C` (stereo not drawn) [Compound 51], the activity at 5 µM was less than 20% and the activity at 10 µM was less than 20%.

Turning to `Cc1cc2nc(CN3CCCC3C(N)=O)n(Cc3ccc(Cl)cc3)c2cc1C` (stereo not drawn) [Compound 52], the activity at 5 µM is less than 80% and the activity at 10 µM is less than 80%.

Regarding `Cc1ccc2c(c1)ncn2Cc1ccc(Cl)cc1` [Compound 53], the activity at 5 µM was less than 55% and the activity at 10 µM is less than 20%. The matching figures for `Fc1cc2ncn(Cc3ccc(Cl)cc3)c2cc1Cl` [Compound 55]: less than 80% and less than 80%.

For `COc1ccc2c(c1)ncn2Cc1ccc(Cl)cc1` [Compound 56], the activity at 5 µM is less than 80% and the activity at 10 µM is less than 55%. The matching figures for `COc1cc2ncn(Cc3ccc(Cl)cc3)c2cc1OC` [Compound 57]: less than 80% and less than 55%. As for `Clc1ccc(Cn2cnc3cc(Cl)ccc32)cc1` [Compound 58], the activity at 5 µM was less than 80%.

Regarding `Cc1ccc2c(ncn2Cc2ccc(Cl)cc2)c1C` [Compound 59], the activity at 5 µM is less than 55% and the activity at 10 µM was less than 55%. For the compound `Oc1ccc2c(c1)ncn2Cc1ccc(Cl)cc1` [Compound 60], the activity at 5 µM is less than 20% and the activity at 10 µM was less than 20%. Consider `Oc1ccc2ncn(Cc3ccc(Cl)cc3)c2c1` [Compound 61], for which the activity at 5 µM is more than 80% and the activity at 10 µM is less than 80%. As to `Cc1cc2nc(CN3CCCC3=O)n(Cc3ccc(Cl)cc3)c2cc1C` [Compound 63], the activity at 5 µM was less than 80% and the activity at 10 µM is more than 80%. On the same counts, the results for `Clc1ccc(Cn2cnc3cc4c(cc32)OCCO4)cc1` [Compound 64] are less than 80% and less than 80%. On the same counts, the results for `Cc1cc2ncn(Cc3ccc(Cl)cc3)c2cc1Cl` [Compound 65] are less than 80% and less than 55%. On the same counts, the results for `Cc1cc2c(ncn2Cc2ccc(Cl)cc2)c([N+](=O)[O-])c1C` [Compound 66] are less than 80% and less than 55%. As for `Cc1cc2c(ncn2Cc2ccc(Cl)cc2)c(N)c1C` [Compound 67], the activity at 5 µM was less than 80% and the activity at 10 µM is less than 80%. As to `CC(=O)Nc1c(C)c(C)cc2c1ncn2Cc1ccc(Cl)cc1` [Compound 68], the activity at 5 µM is more than 80% and the activity at 10 µM was more than 80%. With `Cc1cc2c(ncn2Cc2ccc(Cl)cc2)c(NC(=O)C(C)C)c1C` [Compound 69], the activity at 5 µM was more than 80% and the activity at 10 µM was less than 80%. On the same counts, the results for `Cc1cc2c(ncn2Cc2ccc(Cl)cc2)c(NC(=O)C(F)(F)F)c1C` [Compound 70] are more than 80% and more than 80%.

As to `Cc1cc2c(ncn2Cc2ccc(Cl)cc2)c(NC(=O)c2ccccc2)c1C` [Compound 71], the activity at 5 µM is more than 80% and the activity at 10 µM is more than 80%. Take `CCCCNC(=O)Nc1c(C)c(C)cc2c1ncn2Cc1ccc(Cl)cc1` [Compound 72]: the activity at 5 µM is more than 80% and the activity at 10 µM is more than 80%.
